We go through 87 compounds from PubChem BioAssay AID1645864 (Buhrlage Lab, Dana-Farber Cancer Institute and Novartis …, 2021).

pIC50: −log10 of the molar value. Activity calls are given as the source filed them.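 Rule for the calls: active = maximal inhibition of USP17 at or above 30% in the confirmation dose-response, a value not among the printed readouts; inactive = the rest.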 Some results are limits rather than exact numbers.

The target of the test is Ubiquitin carboxyl-terminal hydrolase 17-like protein 5 (Homo sapiens) (UniProt A8MUK1). Nature of the test: ubiquitin-specific protease 17 DUB inhibitors, concentration-effect assay, cell-free, verification of initial screening actives (AID 1645864). Particulars: purified USP17, ubiquitin-rhodamine cleavage fluorescence, 3 h.
Ubiquitin carboxyl-terminal hydrolase 17-like protein 5 (Homo sapiens), sequence (A8MUK1 whole entry, looked up): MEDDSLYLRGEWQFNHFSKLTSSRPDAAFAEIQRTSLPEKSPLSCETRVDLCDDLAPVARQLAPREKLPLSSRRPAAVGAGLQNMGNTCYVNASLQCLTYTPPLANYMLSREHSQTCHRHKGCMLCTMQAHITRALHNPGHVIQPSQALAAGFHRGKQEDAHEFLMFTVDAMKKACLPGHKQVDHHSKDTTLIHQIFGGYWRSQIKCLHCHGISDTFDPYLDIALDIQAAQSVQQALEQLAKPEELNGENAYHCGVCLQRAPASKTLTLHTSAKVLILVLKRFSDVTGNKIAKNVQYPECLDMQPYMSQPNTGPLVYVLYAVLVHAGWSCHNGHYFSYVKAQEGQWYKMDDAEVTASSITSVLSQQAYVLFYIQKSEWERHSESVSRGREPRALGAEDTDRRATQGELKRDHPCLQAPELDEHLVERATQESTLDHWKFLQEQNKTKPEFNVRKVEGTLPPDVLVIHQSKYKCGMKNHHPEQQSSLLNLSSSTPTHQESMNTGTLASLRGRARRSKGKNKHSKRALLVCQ
In the case of `COc1ccc(-c2cc(C(C)=O)c(C)n2CCC(=O)Nc2ccc(OC)cc2OC)cc1`, the pIC50 (commonly −log10 of the IC50, conventionally taken in molar units) was 4.39.

For the compound `CSc1ncc(C(=O)NC(C)c2ccccc2)c(-c2ccccc2)n1` (configuration not stated), the pIC50 was 4.69. Same read-out and setting: in the case of `COc1cccc(N2CCN(C(=O)C3CCN(c4nc(NC(C)=O)ns4)CC3)CC2)c1` it was 4.53; in that of `CCC(=O)Nc1ccccc1-c1nc2ccccc2n(CC(=O)Nc2cc(OC)ccc2OC)c1=O`, 4.73; in that of `COc1cc(OC)cc(-c2nc(-c3cn(-c4cccc(F)c4)nn3)no2)c1`, 6.89.

For the compound `O=C(COc1nc2ccccc2nc1N1CCOCC1)Nc1cccc(S(=O)(=O)N2CCCCC2)c1`, the IC50 (in general, the concentration at which inhibition is half-maximal) was > 50 µM (inactive). Consider `COc1ccc(-c2nc(SCC(=O)Nc3ccc(Cl)cc3F)n[nH]2)cc1`, for which the pIC50 is 4.32. As to `Cc1ccccc1-c1noc(-c2ccccc2OCC(=O)NC(C)C)n1`, the IC50 was > 50 µM (inactive). Consider `COc1cccc(NC(=O)Nc2ccc(CCc3nc4ccccc4[nH]3)cc2)c1`, for which the pIC50 is 4.31.

Regarding `CCc1nc(N2CCCC2=O)sc1C(=O)Nc1cccc(C(C)=O)c1`, the IC50 is > 50 µM (inactive). The same measure, in the same setting: in the case of `Cc1nn(-c2ccccc2)c2c1N=C1C(Cl)=CC(Cl)=CN1C21C(=O)Nc2ccccc21` (configuration not stated) it was > 50 µM (inactive). On the same count and under the same terms, in the case of `CC(C)(C)c1ccc(C(=O)Nc2ccc(Cn3cncn3)cc2)cc1` it was > 50 µM (inactive). Consider `COc1ccc(CCNC(=O)c2noc3c2CCc2sccc2-3)cc1OC`, for which the pIC50 was 4.66. Turning to `O=c1[nH]c2ccccc2cc1CN(Cc1ccco1)S(=O)(=O)c1ccc(F)cc1`, the IC50 was > 50 µM (inactive).

Take `Cc1ccc(S(=O)(=O)N2CCC3(CC2)NC(=O)c2ccccc2N3)cc1C`: the pIC50 was 4.53. `Cc1ccc2[nH]cc(S(=O)(=O)c3ccc(C)c(F)c3)c(=O)c2c1`: the pIC50 was 4.37. Same read-out and setting: in the case of `Cc1cccc(NC(=O)CSc2ncnc3c2sc2nc(CC(C)C)c4c(c23)CCC4)c1` it was 4.36. `Cc1ccc(-c2nc(-c3cccs3)cc(C(F)(F)F)c2C#N)cc1`: the IC50 was > 50 µM (inactive). In the case of `Cc1ccc(-n2c(=O)c3ccccc3n(Cc3c(F)cccc3Cl)c2=O)cc1`, the pIC50 is 5.45. Still for that read-out and setting: for `CCOc1ccc2[nH]c(=O)c(CN(C(=O)c3cccs3)C3CCCC3)cc2c1` the value was 4.95.

For `CCCC1Cc2c(sc3nc(SCC)nc(N)c23)CO1` (configuration not stated), the pIC50 is 5.11.

For `COc1cccc(OCCCn2c(C(C)NC(=O)c3ccco3)nc3ccccc32)c1` (configuration not stated), the pIC50 was 4.48. On to `N#Cc1ccc(Cc2ncc(C(F)(F)F)cc2Cl)s1`, for which the IC50 was > 50 µM (inactive). Regarding `COc1cc(NC(=O)c2cc(CN3CCOCC3)on2)cc(OC)c1`, the IC50 was > 50 µM (inactive). For the compound `Cc1nc(-c2noc3ccc(C(=O)Nc4cccnc4)cc23)cs1`, the pIC50 was 4.37. `COc1ccc(C(=O)NCCc2nnc3ccc(SCC(=O)NCc4ccc(F)cc4)nn23)cc1`: the pIC50 is 4.73.

In the case of `O=C(CCc1nnc2n(Cc3ccc(F)cc3)c(=O)c3ccccc3n12)N1CCN(c2ccccn2)CC1`, the IC50 is > 50 µM (inactive). Still for that read-out and setting: in the case of `Cc1ccc2c(=O)c3c([nH]c2c1C)CCN(CC(=O)NCc1ccccc1)C3` it was > 50 µM (inactive). Regarding `Cc1ccc(NC(=O)c2ccn(COc3ccc(F)cc3)n2)nc1`, the pIC50 was 4.49. Same read-out and setting: for `O=C(Nc1ccccc1)c1nc(-c2cn(Cc3ccc(F)cc3)nn2)no1` the value was 4.37.

Consider `O=C(Cn1c(CSc2ccccc2)nc2ccccc21)Nc1ccccc1F`, for which the pIC50 was 4.40. On to `Cc1cc(CSc2ncccc2C(=O)Nc2ccnn2Cc2cccnc2)no1`, for which the IC50 is > 50 µM (inactive).

Regarding `N#Cc1ccc(NC(=O)c2ccc(S(=O)(=O)N3CCCCC3)cc2)cc1`, the pIC50 is 4.93. Turning to `O=C(Nc1ccc2c(c1)OCCO2)c1cc(CN2CCOCC2)on1`, the IC50 was > 50 µM (inactive). The same measure, in the same setting: for `COc1ccc(OC)c(-c2cc(C(=O)Nc3c(C)nn(Cc4ccccc4)c3C)no2)c1` the value was > 50 µM (inactive). Take `CCOC(=O)c1c(C)nc2n(Cc3ccccc3)c3ccccc3n12`: the pIC50 is 4.64. On to `CN1CCN(C(=O)c2cc(-c3ccn(CC4CC4)n3)n3ccccc23)CC1`, for which the IC50 was > 50 µM (inactive).

On to `Cc1ccc(Nc2nc(NCCc3ccccc3)nc3c2cnn3C)cc1`, for which the pIC50 was 4.35.

Turning to `Cc1cccc(S(=O)(=O)N2CCc3nc4ccccc4n3CC2)c1`, the pIC50 is 4.61.

As to `O=C(CSc1nnc(CNC(=O)c2ccccc2F)o1)Nc1ccc(OC(F)(F)F)cc1`, the pIC50 is 4.48. Same read-out and setting: for `COc1ccc(NC(=O)CN2C(=O)c3ccccc3Sc3ccc(C(=O)N4CCCC4)cc32)c(OC)c1` the value was 4.75.

Turning to `Nc1c(-c2ccc(Cl)cc2)cnc2nc(Sc3ncc(C(F)(F)F)cc3Cl)nn12`, the IC50 is > 50 µM (inactive).

With `CC(=O)c1ccc(NC(=O)C2CCN(c3cncnc3N3CCCC3)CC2)cc1`, the IC50 was > 50 µM (inactive).

With `COc1ccc(S(=O)(=O)N2CCc3ccccc32)cc1C(=O)Nc1ccc2[nH]c(=O)[nH]c2c1`, the pIC50 was 5.35.

Consider `Cc1ccc2c(c1C)NC(=O)[C@]21[C@@H]2C(=O)N(c3cc(Cl)ccc3Cl)C(=O)[C@@H]2[C@@H]2CCCN21`, for which the IC50 was > 50 µM (inactive). As to `COc1ccc(COc2ccc3c(C)c(CC(=O)N4CC[C@@]5(O)CCCC[C@H]5C4)c(=O)oc3c2)cc1`, the pIC50 was 5.59. Consider `COc1ccccc1CNC(=O)c1ccccc1OCc1ccccc1Cl`, for which the IC50 was > 50 µM (inactive). In the case of `O=C(COc1ccc(Cl)cc1)NCc1nnc(SCC(=O)NCc2ccc3c(c2)OCO3)o1`, the pIC50 was 4.55. Same read-out and setting: for `Cn1c(=O)c2cc(C(=O)Nc3ccc(F)cc3)cnc2n(C)c1=O` the value was 4.64. Regarding `O=C(COC(=O)CCc1ccc(S(=O)(=O)N2CCOCC2)cc1)Nc1ccc2c(c1)OCCO2`, the IC50 is > 50 µM (inactive). As to `COc1ccc(-c2nc3n(n2)C(c2cccc(O)c2)C2=C(CCCC2=O)N3)cc1` (configuration not stated), the pIC50 was 4.38.

As for `O=c1c(OC2O[C@H](CO)[C@H](O)[C@H](O)[C@H]2O)c(-c2ccc(O)cc2)oc2cc(O)cc(O)c12` (some centres not stated), the pIC50 is 4.33.

On to `O=C(Cn1c(=O)n(Cc2ccc3c(c2)OCO3)c(=O)c2ncccc21)c1ccc(Cl)cc1`, for which the pIC50 was 4.48. For `COc1cc2c(cc1OC)C(COc1ccccc1OC)N(C(=O)c1ccc3ccccc3c1)CC2` (configuration not stated), the IC50 is > 5 µM (inactive). `CCC/C=C\C#CC/C=C\CCCCCCCC(=O)O`: the pIC50 is 5.62.

As for `COc1ccc(-c2cc(-c3nnc(CSc4nc5ccccc5n4C)o3)c3ccccc3n2)cc1OC`, the IC50 is > 50 µM (inactive). Consider `Cc1cc(N2CCOCC2)nc2ccc(NC(=O)CCC(=O)Nc3ccc(F)cc3)cc12`, for which the pIC50 was 4.62. The same measure, in the same setting: in the case of `Cc1cc(=O)c2c(O)oc(O)c3c(O)cc(=O)c1c32` it was 4.61; in that of `Cc1ccc2nc(-c3cccc(-c4nc5ccc(C)cc5[nH]4)n3)[nH]c2c1`, 5.15. As for `CCn1c(CN2CCCC(c3nc(-c4cccnc4)n[nH]3)C2)nc2ccccc21` (configuration not stated), the IC50 is > 50 µM (inactive).

In the case of `CN1CCN(c2ncnc3c2oc2ccc(Cl)cc23)CC1`, the IC50 is > 50 µM (inactive). As for `CCC(=O)Nc1nc2cc(NC(=O)Nc3cc(C)cc(C)c3)ccc2s1`, the pIC50 is 5.49. Same read-out and setting: in the case of `CC1=CC(=O)C(C2=C(O)C(=O)C(C)=CC2=O)=C(O)C1=O` it was 5.45. Turning to `COC(=O)c1ccc(Cn2cnc3ccc(Br)cc3c2=O)o1`, the IC50 was > 50 µM (inactive). As for `COc1ccccc1NC(=O)c1nn(-c2cccc(F)c2)c(OC)cc1=O`, the pIC50 is 4.36. `O=c1[nH]cccc1NS(=O)(=O)c1ccc(F)cc1`: the IC50 was > 50 µM (inactive). On to `COc1ccc(C)cc1NC(=O)C1CC(=O)Nc2nc(SCc3ccccc3)nn21` (configuration not stated), for which the pIC50 is 4.72. With `Nc1nonc1C(=O)NCCNCc1cccc(OCc2ccc(Cl)cc2)c1`, the IC50 was > 50 µM (inactive).

As to `CCCc1c(C(=O)O)c(O[C@H]2O[C@H](C)[C@@H](OC)[C@H](OC)[C@@H]2OC)cc2cc3c(c(O)c12)C(=O)c1c(O)cc(O[C@@H]2O[C@@H](C)[C@H](O[C@H]4O[C@H](C)[C@@H](OC)[C@H](OC)[C@@H]4O)[C@@H](OC)[C@H]2O)cc1C3=O`, the IC50 is > 50 µM (inactive).

Take `Cc1c(C(=O)Nc2cccc(C(F)(F)F)c2)cnn1-c1ccccn1`: the pIC50 is 4.46. Consider `Cc1cccc(NC(=O)c2ccn(COc3ccc(F)cc3F)n2)c1C`, for which the IC50 is > 50 µM (inactive). For the compound `Cc1cnnn1-c1ccc(C(=O)Nc2cc(Cl)ccc2Cl)cc1`, the pIC50 was 4.53. For the compound `O=c1sc2ccccc2c(=O)n1Cc1cccc(C(F)(F)F)c1`, the IC50 is > 50 µM (inactive). Regarding `C=C1CCC2[C@](C)(CCC[C@]2(C)C(=O)OC)[C@H]1CCc1ccoc1/C=C/C(=O)O` (some centres not stated), the pIC50 was 4.49. For the compound `CC1=C(c2ccc(F)cc2)S(=O)(=O)NC1=NCC(=O)Nc1ccc(F)cc1F`, the pIC50 was 4.59. Consider `NS(=O)(=O)c1cc(C(=O)OCC(=O)NC2CCCc3ccccc32)ccc1Cl` (configuration not stated), for which the pIC50 is 4.32.

In the case of `Cc1cc(=O)n(CC(=O)NCc2ccccc2F)c2c1c(C)nn2-c1ccccc1`, the pIC50 is 4.62.

For `CS(=O)(=O)N1CCCc2cc(C(=O)Nc3ccc(Oc4ccccc4)cc3)ccc21`, the IC50 is > 50 µM (inactive). As to `Nc1nc(OCc2ccccc2)c2[nH]c(/C=C/c3cccs3)nc2n1`, the pIC50 is 4.49.

As to `CCCc1nc2sc3c(NCCc4ccc(OC)c(OC)c4)ncnc3c2c2c1CCC2`, the IC50 is > 50 µM (inactive).

On to `Cc1cccc(NC(=O)Cn2c(N3CCOCC3)nc3cc(C)n(C)c3c2=O)c1`, for which the pIC50 was 4.56. On the same count and under the same terms, for `O=C(CSc1ncnc2c1oc1ccccc12)Nc1ccc2c(c1)OCCO2` the value was 4.54. For the compound `Cc1cc(C)n2nc(CNc3cccc(Cl)c3)nc2n1`, the IC50 is > 50 µM (inactive). As to `O=C(Nc1ccc(F)cc1F)NC1Cc2ccccc2C1`, the pIC50 is 4.55.

Regarding `Cc1ccccc1C(=O)NCCn1cc(SCC(=O)Nc2ccc3c(c2)OCCO3)c2ccccc21`, the IC50 was > 50 µM (inactive).

For the compound `Cc1ccc(NC(=O)c2sc3ncn(CC(=O)N4CCN(c5ccccn5)CC4)c(=O)c3c2C)c(Br)c1`, the negative-log IC50 (pIC50) is 4.45.

Consider `COc1ccc(Nc2nc3c(S(=O)(=O)c4ccc(C)cc4)nnn3c3ccsc23)c(OC)c1`, for which the pIC50 was 5.58.
